The target in the assay is T1, hASIC1b (Homo sapiens, UniProt P78348).
T1 construct: expressed in transfected cells; host or cells: Xenopus laevis oocytes (cRNA injection)
T1 sequence (P78348 1-562 isoform P78348-3): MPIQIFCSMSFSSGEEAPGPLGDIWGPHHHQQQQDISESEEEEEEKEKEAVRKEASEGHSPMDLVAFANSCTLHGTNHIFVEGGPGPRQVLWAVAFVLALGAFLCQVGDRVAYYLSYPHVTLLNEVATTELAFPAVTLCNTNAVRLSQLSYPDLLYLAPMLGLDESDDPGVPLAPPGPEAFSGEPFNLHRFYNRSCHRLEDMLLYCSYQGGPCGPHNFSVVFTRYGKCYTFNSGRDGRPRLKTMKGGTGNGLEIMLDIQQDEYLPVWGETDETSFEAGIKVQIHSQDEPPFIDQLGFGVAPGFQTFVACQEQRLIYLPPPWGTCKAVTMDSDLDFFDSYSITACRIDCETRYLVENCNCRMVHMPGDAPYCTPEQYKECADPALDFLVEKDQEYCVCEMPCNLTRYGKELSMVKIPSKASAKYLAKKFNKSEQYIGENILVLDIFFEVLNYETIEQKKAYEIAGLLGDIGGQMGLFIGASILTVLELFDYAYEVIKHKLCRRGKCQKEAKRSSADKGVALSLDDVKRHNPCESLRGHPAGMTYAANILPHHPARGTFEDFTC
Nature of the assay: TEVC in Xenopus laevis oocytes expressing hASIC1b. Type of assay: cell-based. To be noted: for remaining activity at 1 µM: 1 µM peptide, conditioning pH 7.45, mean, n ≥ 5, read-out: I/Icontrol. How it is done: Two-electrode voltage-clamp (TEVC) experiments using Xenopus laevis oocytes were conducted as previously described. Briefly, oocytes were surgically removed from anaesthetised female frogs, then treated with collagenase (~ 1 mg/ml, Sigma type I) for 2 h under agitation at room temperature. cRNAs were synthesised using a mMessage mMachine T7 or SP6 transcription kit (Thermo Fisher Scientific Australia Pty Ltd, Scoresby, VIC, Australia) and injected into healthy stage V–VI oocytes at 0.2–20 ng per cell. Different amounts of RNA were used for different wild-type and mutant constructs, as well as to titrate expression levels to record over multiple days and maintaining consistent expression levels. Injected oocytes were incubated at 17 °C for 1–7 days in 50% Leibovitz’s L-15 medium (Gibco, Thermo Fisher Scientific Australia Pty Ltd, Scoresby, VIC, Australia), supplemented with 25 µg/mL gentamicin, 25 µg/mL streptomycin, and 2.5% fetal horse serum. Membrane currents were recorded 2–7 days after cRNA-injection under voltage-clamp at -60 mV (Axon Axoclamp 900 A, Molecular Devices, CA, USA) using two standard glass microelectrodes of 0.5–1 MΩ resistance when filled with 3 M KCl solution. Data were sampled at 2 kHz and filtered at 0.1 kHz using Clampex 10 software (Molecular Devices, CA, USA). A microperfusion system was used to allow fast extracellular solution exchange (bath volume = ~ 30 µL). All experiments were performed at room temperature (18–23 °C) in ND96 (96 mM NaCl, 2 mM KCl, 1.8 mM CaCl2, 2 mM MgCl2, 5 mM HEPES, pH 7.45). In solutions below pH 6.8, HEPES was replaced by MES. All solutions containing peptides contained 0.05% fatty acid free bovine serum albumin to decrease adsorptive losses of peptide to plasticware. For all channels tested, control current magnitudes between 500 and 9000 nA when tested using a conditioning pH of 7.45 and stimulating pH of 6 (except for the chimeras that were stimulated with pH 5) were used for data collection. Before recording any experiments, oocytes were stimulated multiple times with low pH to minimise and stabilise tachyphylaxis/desensitisation, which were then accounted for during analysis. Complete recovery of currents from Ma-3 induced modulation within 3 min of washout at all channels tested allowed for correction for tachyphylaxis/desensitisation during analyses.
Specific to this work, the standard protocol was for oocytes to be conditioned at pH 7.45 and channels stimulated every 60 s using a 5 s pH 5 or 6 application, unless stated otherwise. For all concentration-response data, peptides were applied for ~ 50 s between each low pH stimulus application. Activation curves were determined by conditioning oocytes at pH 8 (Fig. 2e − g; and Fig. 5a and b) or 7.45 (Fig. 6; and Supplementary Fig. 2d and c) for 55 s and applying low pH stimuli from 7.25 to 5.0 for 5 s. Steady-state desensitisation (SSD) was determined by applying conditioning solutions of pH values from 8 to 6 for 115 s prior to stimulation by a pH drop to 5 for 5 s. Ma-3 was only applied in the conditioning solution for activation and steady-state desensitisation curves in the presence of peptide. Control pH-dependence curves were determined in the absence of any Ma-3. When assessing the effect of Ma-3 on the rASIC1a: ASIC1b chimeras (C92 and C166; and for the comparative wild-type data), the conditioning pH was 7.45 and stimulating pH 5 (Fig. 3b). Specific details of the conditioning and stimulating pH are noted in each figure legend.
Data were analysed using pCLAMP-Clampfit software (Version 11, Molecular Devices, CA, USA) and GraphPad Prism 9.5 and 10.2.2 (GraphPad Software, San Diego, CA, USA). To obtain the Hill coefficient (nH) and half-maximal response (EC50, IC50, or pH50) the Hill equation was fitted to normalised concentration-response curves by using a non-linear fit to the data of a four-parameter logistic equation (“sigmoidal dose-response” in GraphPad Prism 9.5). […]

Like-named read-outs stand apart in the source and are kept apart here. Positions of bridges follow the written chain, without caps; N, C: chain ends. No end group written: not given here.

On to “H-SLKCYQHGKVVTCHRDMKFCYHNIGMPFRNLKLILQGCSAACSETENNKCCSTDRCNK (disulfide 4-20, 13-38, 42-50, 51-56 (inferred)) [S39A/S40A]”, for which the remaining activity at 1 µM runs as follows: (pH 5 evoked currents) 71%; (pH 6 evoked currents) 165%.

With “H-SLKCYQHGKVVTCHRDMKFCYHNIGMPFRNAKLILQGCSSSCSETENNKCCSTDRCNK (disulfide 4-20, 13-38, 42-50, 51-56 (inferred)) [L30A]”, the remaining activity at 1 µM reads like this: (pH 5 evoked currents) 116%; (pH 6 evoked currents) 172%. For “H-SLKCYQHGKVVTCHADMKFCYHNIGMPFRNLKLILQGCSSSCSETENNKCCSTDRCNK (disulfide 4-20, 13-38, 42-50, 51-56 (inferred)) [R14A]” the same measures were 77% and 157%. Turning to “H-SLKCYQHGKVVTCHRDMKFCYHNIGMPFRNLKLILQGCSSSCSETENNACCSTDRCNK (disulfide 4-20, 13-38, 42-50, 51-56 (inferred)) [K48A]”, the remaining activity at 1 µM stood at 70% (pH 5 evoked currents) and 154% (pH 6 evoked currents). “LKCYQHGKVVTCHRDMKFCYHNTGMPFRNLKLILQGCSSSCSETENNKCCSTDRCNK (disulfide 3-19, 12-37, 41-49, 50-55) [Ma-1, reference compound]”: the “Hill slope (95% CI)” value (conditioning pH 7.45, pH 6 evoked currents, potentiation, 95% CI) was 0.73–2.56.

With “H-SLKCYQHGKVVTCHRDMKFCYHNIGMPFRNLKLILQGCSSSCSETENNKCCSTDACNK (disulfide 4-20, 13-38, 42-50, 51-56 (inferred)) [R54A]”, the remaining activity at 1 µM runs as follows: (pH 5 evoked currents) 79%; (pH 6 evoked currents) 145%. The matching figures for “H-SLKCYQHGKVVTCHRDMKFCYHNAGMPFRNLKLILQGCSSSCSETENNKCCSTDRCNK (disulfide 4-20, 13-38, 42-50, 51-56 (inferred)) [I23A]”: 67% and 159%.

Regarding “H-SLKCYQHGKVVTCHRDMKFCYHNIGMPFRNLKLILQGCSSSCSETENNKCCSTDRCNA (disulfide 4-20, 13-38, 42-50, 51-56 (inferred)) [K57A]”, the remaining activity at 1 µM is, setting by setting: (pH 5 evoked currents) 73%; (pH 6 evoked currents) 147%. As to “H-SLKCYQHGKVVTCHRDMKFCYHNIGMPFRNLALILQGCSSSCSETENNKCCSTDRCNK (disulfide 4-20, 13-38, 42-50, 51-56 (inferred)) [K31A]”, the remaining activity at 1 µM reads like this: (pH 5 evoked currents) 94%; (pH 6 evoked currents) 140%.

As for “H-SLKCYQHGKVVTCHRDMKFCYHNIGMPFRNLKLILAGCSSSCSETENNKCCSTDRCNK (disulfide 4-20, 13-38, 42-50, 51-56 (inferred)) [Q35A]”, the remaining activity at 1 µM runs as follows: (pH 5 evoked currents) 71%; (pH 6 evoked currents) 168%. For “H-SLKCYQHGKVVTCHRDMKFCYHNIGMPFRALKLILQGCSSSCSETENNKCCSTDRCNK (disulfide 4-20, 13-38, 42-50, 51-56 (inferred)) [N29A]” the same measures were 76% and 171%. For “H-SLKCYQHGKVVTCARDMKFCYHNIGMPFRNLKLILQGCSSSCSETENNKCCSTDRCNK (disulfide 4-20, 13-38, 42-50, 51-56 (inferred)) [H13A]” the same measures were 74% and 142%. As to “H-SLKCYQHGKVVTCHRDMKFCYHNIGMPFRNLKLILQGCSSSCSETANNKCCSTDRCNK (disulfide 4-20, 13-38, 42-50, 51-56 (inferred)) [E45A]”, the remaining activity at 1 µM (pH 5 evoked currents) is 68% and the remaining activity at 1 µM (pH 6 evoked currents) amounted to 163%.

The values are drawn from PMC11335189, “Revealing molecular determinants governing mambalgin-3 pharmacology at acid-sensing ion channel 1 variants” (Cellular and Molecular Life Sciences: CMLS, 2024).
